Values quoted from earlier work as cited in patent US8512751B2, “Pharmaceutical compositions for sleep disorders” (Collegium Pharmaceutical, Inc., priority 2004, dated 2013).
Structures can show the parent of a compound that is named as a salt. One block for each compound: values may come before it.

What was measured:
[1] = water and normal saline
sleep apnea [2] = conditions: for effect in individuals with sleep apnea: patients, literature
serotonin uptake = conditions: animal models
sleep apnea [3] = conditions: animal model of sleep apnea
[4] = man, single oral 40-mg dose
nocturnal sleep = conditions: healthy adults; 20, 40 and 60 mg
[5] = in vivo

solubility [1]: soluble in water and normal saline
Compound: Cc1nccn1CC1CCc2c(c3ccccc3n2C)C1=O (racemic) [Ondansetron HCl dihydrate, (±) 1,2,3,9-tetrahydro-9-methyl-3-[(2-methyl-1H-imidazol-1-yl)methyl]-4H-carbazol-4-one, monohydrochloride, dihydrate]

Bioavailability, effect of antacids (antacids): unaffected
Mean bioavailability (healthy subjects, single 8-mg tablet): approximately 56%
radiolabeled dose recovered from the urine as the parent compound (humans): approximately 5%
AUC from a 16-mg tablet greater than predicted from an 8-mg tablet dose (oral tablets): 24%
half-life (plasma, humans): 3 to 5 h
Bioavailability, effect of food (presence of food): slightly enhanced
extent and rate of absorption, gender difference (single dose): greater in women than men
Compound: Cc1nccn1CC1CCc2c(c3ccccc3n2C)C1=O (stereo not drawn) [Ondansetron]

Compound: CNCCCC1c2ccccc2C=Cc2ccccc21 [Protriptyline]
effect in individuals with sleep apnea (sleep apnea [2]): variable results and frequent and significant side effects

Compound: NCC[C@@H](Oc1ccc(C(F)(F)F)cc1)c1ccccc1 [R-norfluoxetine]
inhibition of serotonin uptake, activity relative to fluoxetine (serotonin uptake): significantly less potent than the parent drug

Compound: NCC[C@H](Oc1ccc(C(F)(F)F)cc1)c1ccccc1 [S-norfluoxetine]
inhibition of serotonin uptake, activity relative to fluoxetine (serotonin uptake): essentially equivalent to R- or S-fluoxetine

Compound: CC(=O)Nc1nnc(S(N)(=O)=O)s1 [acetazolamide]
effect in individuals with sleep apnea (sleep apnea [2]): produced variable improvement in individuals with primary central apneas but caused an increase in obstructive apneas

Compound: Nc1ncnc2c1ncn2[C@@H]1O[C@H](CO)[C@@H](O)[C@H]1O [adenosine]
reduction of apnea (sleep apnea [3]): somewhat effective in reducing apnea

Compound: CCN1CC(CCN2CCOCC2)C(c2ccccc2)(c2ccccc2)C1=O (stereo not drawn) [doxapram]
effect in individuals with sleep apnea (sleep apnea [2]): decrease the length of apneas but did not alter the average arterial oxygen saturation

peak plasma concentrations [4]: 15 to 55 ng/mL
time of peak plasma concentrations [4]: 6 to 8 h
patients with increased EOG and EMG activity on treatment in every sleep stage (EOG and EMG activity; in vivo): Thirty-four
Compound: CNCCC(Oc1ccc(C(F)(F)F)cc1)c1ccccc1 (stereo not drawn) [fluoxetine]
effects on nocturnal sleep (nocturnal sleep): reduced the total sleep time and the duration of rapid eye movement (REM) sleep and increased awake activity and stage 1 (drowsy) sleep during the night
number of eye movements, EOG and EMG activity on treatment (EOG and EMG activity; REM, stages 1, 2, and slow-wave sleep): significantly increases the number of eye movements
individuals with OSAS with measurable benefits (sleep apnea [2]; initial evidence): approximately 50%

Compound: CC1(C)Cc2cc(Cl)cc(C(=O)NC3CC4CCC(C3)[N+]4(C)C)c2O1 (stereo not drawn) [methylated zatosetron]
ability to cross the blood-brain barrier [5]: lack the ability to cross the blood-brain barrier

Compound: C=CCN1CC[C@]23c4c5ccc(O)c4O[C@H]2C(=O)CC[C@@]3(O)[C@H]1C5 [naloxone]
effect in individuals with sleep apnea (sleep apnea [2]): only slightly helpful

Compound: Cn1c(=O)c2[nH]cnc2n(C)c1=O [theophylline]
effect in individuals with sleep apnea (sleep apnea [2]): may benefit patients with central apnea but appears to be of no use in adult patients with obstructive apnea

Compound: medroxyprogesterone
effect in individuals with sleep apnea (sleep apnea [2]): no consistent benefit in OSAS
